Measured values taken from US20160015893A1, “DIRECT PRESSURE-MEDIATED INTRA-BONE DELIVERY SYSTEM FOR CELLULAR THERAPEUTICS” (The United States of America, as represented by the …, priority 2013, published 2016).

How the values were obtained:
[1] = CT imaging of IB contrast injection (marrow flow, venous drainage, leakage); type: in vivo, domestic swine (Sus scrofa domesticus)
Experimental: To evaluate flow through the bone marrow cavity, abdominal vessels were identified using iopamidol-370 contrast injected into the distal abdominal aorta via a 5Fr Glidecath (Terumo Medical Corporation, Somerset, N.J.) inserted in the internal carotid artery. To evaluate the anatomy of the veins, iopamidol-370 contrast was injected IB under anesthesia (boluses of 5 or 10 ml at rates of 0.1 to 2.5 ml/s) while scanning with 320-row detector CT (Aquilion ONE™, Toshiba Medical, Japan). Pulmonary artery, carotid artery and intra-marrow pressures were monitored and recorded continuously both during and after injection of contrast media. In select animals, vascular occluders (In Vivo Metric, Healdsburg, Calif.) were placed around the terminal branches of the abdominal aorta to selectively control flow through the internal or external iliac arteries, and around the iliac veins to control venous drainage from the pelvis. […]
To evaluate flow through the marrow and venous drainage, direct intra-bone injection into the hemipelvis with iopamidol-370 contrast was performed under anesthesia with dynamic CT images acquired using a 320-detector row scanner (Aquilion One, Toshiba Medical, Japan). Human CD34+ and swine BM MNCs were labeled with Zirconium-89 (^89Zr), and were then assessed for viability, cell number, and the level of cellular radioactivity.

[2] = PET/CT in vivo distribution of radioactivity after IV, IB or intra-arterial administration in swine; design: species or system domestic swine (Sus scrofa domesticus)
Experimental: Animals were heparinzed to an ACT of 300 seconds or greater and were started with deferoxamine IV infusion (5 mg/kg/hr) to chelate any free ^89Zr that may potentially be released from fragmented cells. PET scans were performed using a Gemini TF clinical PET/CT scanner (Philips Medical Systems, Andover, Mass.). Following injection, animals were imaged in 3-dimensional (3D) time-of-flight mode with a spatial resolution of 4.8 mm at the center of the field of view. The images were reconstructed using the default row-action maximum-likelihood algorithm iterative reconstruction, with standard corrections for random, scatter, attenuation, and normalization. Three volumes of interest (VOI) were manually drawn within the swine PET/CT scans. One VOI enclosing the intra-pelvic bone volume near the injection site, another VOI enclosing the extra-pelvic bone volume and the last VOI for the lung volume. The sum of measured activities of the three volumes equals the total injected radioactivity into the swine. Thus, the percent-injected dose (% ID) within each VOI was estimated by dividing each VOI by the sum of the three VOIs and multiplying by 100. The percent-injected dose for each of the three regions is reported herein.

[3] = Control group, IB injection without cells, pig 32590, after the first hour

| Compound | Contrast distribution on CT ([1]; IB injection at rates exceeding 0.2 ml/s, volumes >10 ml, or by hand) | Contrast distribution on dynamic CT ([1]; manual sequential hand intra-bone injection of 5 ml aliquots at two sites in the ipsilateral iliac crest) | Extra-pelvic bone VOI (Max) [2, 3] | Extra-pelvic bone VOI (Mean) [2, 3] | Intra-pelvic bone % ID [2, 3] | Intra-pelvic bone VOI (Max) [2, 3] | Intra-pelvic bone VOI (Mean) [2, 3] | Intra-pelvic bone total radioactivity [2, 3] | Lung % ID [2, 3] | Lung VOI (Mean) [2, 3] | Lung total radioactivity [2, 3] | Intra-pelvic bone % ID ([2]; Control group, IB injection without cells, pig 32590, after the first hour, listed as 89Zr—Df) | Location of radioactivity, fusion PET/CT ([2]; IB injection without cells, 1 hr) | Radioactivity within the renal collecting system, ureters and bladder ([2]; IB injection without cells, first hour) | Excretion of radioactivity ([2]; IV injection without cells) | Retention in the lungs ([2]; IV or IB administration without cells, first hour) |
| --- | --- | --- | --- | --- | --- | --- | --- | --- | --- | --- | --- | --- | --- | --- | --- | --- |
| C[C@H](O)C(=O)Nc1c(I)c(C(=O)NC(CO)CO)c(I)c(C(=O)NC(CO)CO)c1I [iopamidol-370 contrast, iopamidol-370] | extrabone contrast leakage at the site of injection | leakage from the initial access site after the first injection as well as immediate drainage into the ipsilateral iliac vein | – | – | – | – | – | – | – | – | – | – | – | – | – | – |
| ^89Zr-deferoxamine [^89Zr-Df] | – | – | 91.45 | 15.32 | 33.5 % ID | 338.9 | 314.42 | 1085.85 counts | 0.0% ID | 0 | 0 counts | 33.5% ID | radioactivity in the renal pelvises and bladder | 66.5 % ID | rapid renal excretion | no retention |
